SMILES strings stand for the structures.

From US10689377B2 (Mirati Therapeutics, Inc., priority 2017, dated 2020) come the findings set out here.

Sequence of KRas G12C (P01116 1-188 isoform P01116-2 G12C): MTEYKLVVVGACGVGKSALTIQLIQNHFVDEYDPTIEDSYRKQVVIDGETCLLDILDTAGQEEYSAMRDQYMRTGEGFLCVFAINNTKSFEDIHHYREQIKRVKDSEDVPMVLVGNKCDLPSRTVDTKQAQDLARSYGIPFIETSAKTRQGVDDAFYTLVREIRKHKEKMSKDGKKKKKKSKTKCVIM

The assay deals with KRas G12C (Homo sapiens, UniProt P01116, G12C). As to the kind of experiment: Cellular inhibition of KRas G12C measured by Phospho-ERK in NCI-H358 cells. As to conditions: pERK(Thr202/Tyr204) normalized with GAPDH, NCI-H358 cells, 3 hours; read-out: IC50. It counts as cell-based. An outline of the steps:
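Readout is pERK(Thr202/Tyr204) immunofluorescence normalized to GAPDH, expressed as percent of DMSO control and fitted with a 4-parameter curve for IC50. Attached NCI-H358 cells received compound for 3 hours in 0.5% DMSO, followed by fixation and methanol permeabilization.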
A word on the IC50: it is the concentration needed to halve the response being measured. For `C=CC(=O)N1CCN(c2nc(OCCCN3CCOCC3)nc3c2CCN(c2c(C)ccc4[nH]ncc24)C3)CC1` [Example 44, 1-(4-(7-(5-methyl-1H-indazol-4-yl)-2-(3-morpholinopropoxy)-5,6,7,8-tetrahydropyrido[3,4-d]pyrimidin-4-yl)piperazin-1-yl)prop-2-en-1-one], the 50% inhibitory concentration (IC50) was greater than 1 µM.

`C=CC(=O)N1CCN(c2nc(OCCCN3C[C@H]4C[C@@H]3CO4)nc3c2CCN(c2ccccc2C(F)(F)F)C3)CC1CC#N` (stereo partly drawn) [Example 297, 2-[4-[2-[3-[(1R,4R)-2-oxa-5-azabicyclo[2.2.1]heptan-5-yl]propoxy]-7-[2-(trifluoromethyl)phenyl]-6,8-dihydro-5H-pyrido[3,4-d]pyrimidin-4-yl]-1-prop-2-enoyl-piperazin-2-yl]acetonitrile]: the IC50 is 0.0001 to 1 µM.

Consider `C=CC(=O)N1CCN(c2nc(OC[C@@H]3CCCN3C)nc3c2CCN(c2c(F)cccc2C(F)(F)F)C3)CC1CC#N` (some centres unmarked) [Example 275], for which the IC50 was 0.0001 to 1 µM.

Turning to `C=CC(=O)N1CCN(c2nc(OC[C@@H]3CCN(C)C3)nc3c2CCN(c2cccc4ccccc24)C3)C[C@@H]1CC#N` [Example 410, 2-((S)-1-acryloyl-4-(2-(((R)-1-methylpyrrolidin-3-yl)methoxy)-7-(naphthalen-1-yl)-5,6,7,8-tetrahydropyrido[3,4-d]pyrimidin-4-yl)piperazin-2-yl)acetonitrile], the 50% inhibitory concentration (IC50) was 0.0001 to 1 µM.

As to `C=CC(=O)N1CCN(c2nc(OCCCN(C)C)nc3c2CCN(C(C)c2ccccc2)C3)CC1` (centres unmarked) [Example 25, 1-(4-(2-(3-(dimethylamino)propoxy)-7-(1-phenylethyl)-5,6,7,8-tetrahydropyrido[3,4-d]pyrimidin-4-yl)piperazin-1-yl)prop-2-en-1-one], the half-maximal inhibitory concentration (IC50) was greater than 1 µM.

For `CN(C)C/C=C/C(=O)N1CCN(c2nc(OC[C@@H]3CCCN3C)nc3c2CCN(c2cc(O)cc4ccccc24)C3)CC1` [Example 199, (S,E)-4-(dimethylamino)-1-(4-(7-(3-hydroxynaphthalen-1-yl)-2-((1-methylpyrrolidin-2-yl)methoxy)-5,6,7,8-tetrahydropyrido[3,4-d]pyrimidin-4-yl)piperazin-1-yl)but-2-en-1-one], the half-maximal inhibitory concentration (IC50) was greater than 1 µM.

As for `C=CC(=O)N1CCN(c2nc(N3CC[C@H](N(C)C)C3)nc3c2CCN(c2cccc4ccccc24)C3)C[C@@H]1CC#N` [Example 403], the half-maximal inhibitory concentration (IC50) lay in the range of 0.0001 to 1 µM.

On to `C=CS(=O)(=O)N1CCN(c2nc(OC[C@@H]3CCCN3C)nc3c2CCN(c2cccc(C)c2C)C3)CC1` [Example 343, 7-(2,3-dimethylphenyl)-2-[[(2S)-methylpyrrolidin-2-yl]methoxy]-4-(4-vinylsulfonylpiperazin-1-yl)-6,8-dihydro-5H-pyrido[3,4-d]pyrimidine], for which the IC50 was greater than 1 µM.

Regarding `C=CC(=O)N1CCN(c2nc(OCCCN3CCOCC3)nc3c2CCN(c2c(C)ccc4[nH]ccc24)C3)CC1` [Example 209, 1-(4-(7-(5-methyl-1H-indol-4-yl)-2-(3-morpholinopropoxy)-5,6,7,8-tetrahydropyrido[3,4-d]pyrimidin-4-yl)piperazin-1-yl)prop-2-en-1-one], the IC50 is greater than 1 µM.

For `C=C(F)C(=O)N1CCN(c2nc(OC[C@@H]3CCCN3C)nc3c2CCN(c2c(C(F)(F)F)c(C)cc4[nH]ncc24)C3)C[C@@H]1CC#N` [Example 527], the 50% inhibitory concentration (IC50) was in the range of 0.0001 to 1 µM.

For the molecule `C=CC(=O)N1CCN(c2nc(OC[C@@H]3CCCN3C)nc3c2CCN(c2c(C)ccc(F)c2C)C3)C[C@@H]1CC#N` [Example 349, 2-((S)-1-acryloyl-4-(7-(3-fluoro-2,6-dimethylphenyl)-2-(((S)-1-methylpyrrolidin-2-yl)methoxy)-5,6,7,8-tetrahydropyrido[3,4-d]pyrimidin-4-yl)piperazin-2-yl)acetonitrile], the IC50 lay within 0.0001 to 1 µM.

Take `C=CC(=O)N1CCN(c2nc(OCCCN3CCN(C(C)=O)CC3)nc3c2CCN(c2cc(O)cc4ccccc24)C3)CC1` [Example 135, 1-[4-[2-[3-(4-acetylpiperazin-1-yl)propoxy]-7-(3-hydroxy-1-naphthyl)-6,8-dihydro-5H-pyrido[3,4-d]pyrimidin-4-yl]piperazin-1-yl]prop-2-en-1-one]: the IC50 fell in the range of 0.0001 to 1 µM.

For the molecule `C=CC(=O)N1CCN(c2nc(OCCN3CCC[C@H](OC)C3)nc3c2CCN(c2cc(O)cc4ccccc24)C3)CC1` [Example 98, (S)-1-(4-(7-(3-hydroxynaphthalen-1-yl)-2-(2-(3-methoxypiperidin-1-yl)ethoxy)-5,6,7,8-tetrahydropyrido[3,4-d]pyrimidin-4-yl)piperazin-1-yl)prop-2-en-1-one], the half-maximal inhibitory concentration (IC50) is greater than 1 µM.

With `C=CC(=O)N1CCN(c2nc(OC[C@@H]3CCCCN3C)nc3c2CCN(c2cc(O)cc4ccccc24)C3)CC1` [Example 196, (S)-1-(4-(7-(3-hydroxynaphthalen-1-yl)-2-((1-methylpiperidin-2-yl)methoxy)-5,6,7,8-tetrahydropyrido[3,4-d]pyrimidin-4-yl)piperazin-1-yl)prop-2-en-1-one], the half-maximal inhibitory concentration (IC50) lay within 0.0001 to 1 µM.

As to `C=CC(=O)N1CCN(c2nc(O[C@@H]3CCCN(C)C3)nc3c2CCN(c2cc(O)cc4ccccc24)C3)CC1` [Example 67, (R)-1-(4-(7-(3-hydroxynaphthalen-1-yl)-2-((1-methylpiperidin-3-yl)oxy)-5,6,7,8-tetrahydropyrido[3,4-d]pyrimidin-4-yl)piperazin-1-yl)prop-2-en-1-one], the IC50 lay within 0.0001 to 1 µM.

Regarding `C=CC(=O)N1CCN(c2nc(N3CCN(CCO)CC3)nc3c2CCN(c2cc(O)cc4ccccc24)C3)CC1` [Example 26, 1-(4-(2-(4-(2-hydroxyethyl)piperazin-1-yl)-7-(3-hydroxynaphthalen-1-yl)-5,6,7,8-tetrahydropyrido[3,4-d]pyrimidin-4-yl)piperazin-1-yl)prop-2-en-1-one], the IC50 was greater than 1 µM.

As for `C=CC(=O)N1CCN(c2nc(OCCCN3CCCCC3)nc3c2CCN(c2cc(O)cc4ccccc24)C3)CC1` [Example 38, 1-(4-(7-(3-hydroxynaphthalen-1-yl)-2-(3-(piperidin-1-yl)propoxy)-5,6,7,8-tetrahydropyrido[3,4-d]pyrimidin-4-yl)piperazin-1-yl)prop-2-en-1-one], the IC50 fell in the range of 0.0001 to 1 µM.

With `CN1CCC[C@H]1COc1nc2c(c(N3CCN(C(=O)/C=C/CN4CCCC4)[C@@H](CC#N)C3)n1)CCN(c1cccc(Cl)c1C(F)(F)F)C2` [Example 347, 2-[(2S)-4-[7-[3-chloro-2-(trifluoromethyl)phenyl]-2-[[(2S)-1-methylpyrrolidin-2-yl]methoxy]-6,8-dihydro-5H-pyrido[3,4-d]pyrimidin-4-yl]-1-[(E)-4-pyrrolidin-1-ylbut-2-enoyl]piperazin-2-yl]acetonitrile], the half-maximal inhibitory concentration (IC50) was 0.0001 to 1 µM.

As to `C=CC(=O)N1CCN(c2nc(OC[C@@H]3CCCN3C)nc3c2CCN(c2nccc4ccccc24)C3)CC1CC#N` (stereo partly drawn) [Example 258, 2-[4-[7-(1-isoquinolyl)-2-[[(2S)-1-methylpyrrolidin-2-yl]methoxy]-6,8-dihydro-5H-pyrido[3,4-d]pyrimidin-4-yl]-1-prop-2-enoyl-piperazin-2-yl]acetonitrile], the IC50 was greater than 1 µM.

As for `C=CC(=O)N1CCN(c2nc(OC[C@@H]3CCCN3C)nc3c2CCN(c2cccc4cccc(C)c24)C3)CC1CC#N` (stereo partly drawn) [Example 309, 2-(1-acryloyl-4-(7-(8-methylnaphthalen-1-yl)-2-(((S)-1-methylpyrrolidin-2-yl)methoxy)-5,6,7,8-tetrahydropyrido[3,4-d]pyrimidin-4-yl)piperazin-2-yl)acetonitrile], the IC50 was in the range of 0.0001 to 1 µM.

In the case of `C=CC(=O)N1CCN(c2nc(OC[C@@H]3CCCN3CCOC)nc3c2CCN(c2cc(O)cc4ccccc24)C3)CC1` [Example 144, (S)-1-(4-(7-(3-hydroxynaphthalen-1-yl)-2-((1-(2-methoxyethyl)pyrrolidin-2-yl)methoxy)-5,6,7,8-tetrahydropyrido[3,4-d]pyrimidin-4-yl)piperazin-1-yl)prop-2-en-1-one], the IC50 was 0.0001 to 1 µM.

`CCN1CCC[C@H]1COc1nc2c(c(N3CCN(C(=O)/C=C/CN(C)C)[C@@H](CC#N)C3)n1)CCN(c1cccc3ccccc13)C2` [Example 401, 2-((S)-1-((E)-4-(dimethylamino)but-2-enoyl)-4-(2-(((S)-1-ethylpyrrolidin-2-yl)methoxy)-7-(naphthalen-1-yl)-5,6,7,8-tetrahydropyrido[3,4-d]pyrimidin-4-yl)piperazin-2-yl)acetonitrile]: the half-inhibitory concentration (IC50) fell in the range of 0.0001 to 1 µM.

On to `C=CC(=O)N1CCN(c2nc(OC[C@H]3CCCN3CCO)nc3c2CCN(c2cccc4ccccc24)C3)C[C@@H]1CC#N` [Example 329, 2-[(2S)-4-[2-[[(2R)-1-(2-hydroxyethyl)pyrrolidin-2-yl]methoxy]-7-(1-naphthyl)-6,8-dihydro-5H-pyrido[3,4-d]pyrimidin-4-yl]-1-prop-2-enoyl-piperazin-2-yl]acetonitrile], for which the 50% inhibitory concentration (IC50) lay in the range of 0.0001 to 1 µM.

Consider `C=CC(=O)N1CCN(c2nc(OCC3COCCN3C)nc3c2CCN(c2cc(O)cc4ccccc24)C3)CC1` (centres unmarked) [Example 194, 1-(4-(7-(3-hydroxynaphthalen-1-yl)-2-((4-methylmorpholin-3-yl)methoxy)-5,6,7,8-tetrahydropyrido[3,4-d]pyrimidin-4-yl)piperazin-1-yl)prop-2-en-1-one], for which the IC50 is greater than 1 µM.

For `C=CC(=O)N1CCN(c2ncnc3c2CCN(c2cc(O)cc4ccccc24)C3)CC1` [Example 1, 1-(4-(7-(3-hydroxynaphthalen-1-yl)-5,6,7,8-tetrahydropyrido[3,4-d]pyrimidin-4-yl)piperazin-1-yl)prop-2-en-1-one], the IC50 was greater than 1 µM.

With `C=CC(=O)N1CCN(c2nc(OC[C@H]3CCCN3CC)nc3c2CCN(c2cccc4ccccc24)C3)C[C@@H]1CC#N` [Example 334, 2-[(2S)-4-[2-[[(2R)-1-ethylpyrrolidin-2-yl]methoxy]-7-(1-naphthyl)-6,8-dihydro-5H-pyrido[3,4-d]pyrimidin-4-yl]-1-prop-2-enoyl-piperazin-2-yl]acetonitrile], the IC50 was 0.0001 to 1 µM.
